Assay results as given in patent US8642784B2, “Biologically active compound N-[3-(4-nitrophenylamino)-indole-2-ilmethylene]aminoguanidine hydrochloride with anti-inflammatory activity” (priority 2010, dated 2014).
Counter-ions that a name gives are not always drawn. Like-named read-outs stand apart in the source and are kept apart here. Marks after values point to notes of the source that are not given here.

Experiments:
[1] = system: carrageenan-induced peritonitis in mice; assay: Carrageenan-induced peritonitis in mice, volume of exudate; type: in vivo
Procedure: Research was carried out by a method described in [5]. Experiments were performed using male mice with body mass 23-24 g, in groups of 10 animals. […] The results were processed using variation statistics methods for biological research (mean standard error, means were calculated using Student's t-distribution).

[2] = Assessment of other types of pharmaceutical activity
From the text: All discovered types of pharmacological activity of compound 2 are present not only in its hydrochloride form, but also in its other pharmaceutically acceptable salts (e.g. Na, K, Ca, Mg), and also in complex combinations with pharmaceutically acceptable complexones (e.g. with glycyrrhizic acid).

[3] = system: mice stomach; assay: Aggravation of ulcerogenic effect by indomethacin; type: in vivo
Procedure: (§1) Studies were performed according to the following scheme: • 1. […] Study of the compounds' ulcerogenic action using pharmaceutical dose during 7 days of administration. • 3. Aggravation of ulcerogenic effects of studied compounds by 0.6H hydrochloric acid. • 4. Aggravation of ulcerogenic effects of studied compounds by the known NSAIDs (indomethacin). 1.
(§2) Ulcerogenic effect was assessed using 4-point scale: 0—no damage; 0.5—hyperemia; 1—insignificant damage (1 or 2 small bleedings); 2—multiple damage (erosions, small bleedings); 3—significant and multiple damage (erosions, bleedings); 4—severe damage, affecting all gastric mucosa (massive bleedings, erosions, perforations).
(§3) Male mice with body mass 23-24 g were deprived of food for 24 hours, water access was not limited.
Drugs of comparison: voltaren—50 mg/kg and aminoguanidine—200 mg/kg. Each test group had 10 animals.

[4] = system: mice stomach; assay: Aggravation of ulcerogenic effects by 0.6H hydrochloric acid; type: in vivo
Procedure: as §1, §2, §3
(§4) Drugs of comparison: indomethacin 20 mg/kg, voltaren—50 mg/kg and aminoguanidine—200 mg/kg. Each test group had 10 animals.

[5] = system: mice stomach; type: in vivo
Procedure: as §1, §2
After 7 days the animals were sacrificed by CO2, their stomachs extracted and the number of ulcers counted.
as §4

[6] = system: LPS-induced peritonitis in rats; assay: LPS-induced peritonitis in rats, volume of exudate; type: in vivo; settings: for Anti-inflammatory activity in LPS-induced peritonitis model, % of control: rats
Procedure: (§5) Anti-exudative action was studied in male rate with body mass 170.0-180.0 g. Peritonitis was induced by intraperitoneal administration of lipopolysaccharide (LPS), produced from Escherichia coli (Sigma)—1.0 mg/kg as described in [6]: after 4 hours the animals were sacrificed by CO2, their peritoneal cavity opened and the volume of exudate was measured in ml. Studied compounds and drugs of comparison were administered per os one hour before LPS, control group was composed of rats receiving 0.3 ml of saline before LPS administration. Each group had 7 animals.
(§6) The results were processed using variation statistics methods for biological research (mean standard error, means were calculated using Student's t-distribution).

[7] = system: adjuvant arthritis in Wistar rats; assay: Chronic arthritis (adjuvant arthritis) model in Wistar rats; type: in vivo
Procedure: Compound of formula 2 was tested in chronic arthritis (adjuvant arthritis) model in Wistar rats.
In the same dose the compound has shown a potent (better than indomethacin) chondroprotective action towards interphalangeal joints of affected leg (x-ray (röntgenography) data). In intragastric administration (analog of per os) the compound has shown systemic anti-inflammatory action (reduction of swelling, leukocytosis, TNFα level, chondroprotective action) that may be associated with the inhibition of delayed type hypersensitivity.

[8] = Study of the compound's toxicity: mice mortality, LD50 by Karber method; type: in vivo; settings: male, mouse, in vivo; oral; stated as 'may exceed'; read-out: LD50 in oral administration
Procedure: (§7) Study of the compound of formula 2 was conducted in vivo. […] To determine the doses of the compound that would need to be studied, it is first necessary to study its toxicity. Studies were carried out in male mice with body mass 18-20 g. Compound 2 was administered as a water suspension. Each dose was administered to 5 animals. Behavior and overall condition of animals were observed during 5 days. LD50 (the dose causing the death of 50% of animals) was calculated using Karber method.

[9] = system: male mice; assay: as above; type: in vivo; settings: for Animal mortality: Alive / Animal mortality: Dead: 5 mice per group, 5 days observation
Procedure: as §7

[10] = system: LPS-induced peritonitis in mice; assay: LPS-induced peritonitis in mice, volume of exudate; type: in vivo
Procedure: Activity was studies using the methods listed in “Methodical recommendations on experimental (preclinical) research of new nonsteroidal anti-inflammatory drugs” for new compounds screening, in animal models of peritonitis induced by lipopolysaccharide (LPS) and carrageenan.
as §5, with “mice” for “rate”, “mice 22.0-23.0” for “mass 170.0-180.0”, “(Sigma) 1.0 mg/kg,” for “(Sigma)—1.0 mg/kg”, “mice” for “rats”, “10” for “7”
as §6

[11] = system: mice stomach; assay: Irritant action on mice stomach, single administration of 500 mg/kg; type: in vivo
Procedure: Ulcerogenic effect of compound 2 was studied in accordance with Methodical recommendations on experimental (preclinical) research of new nonsteroidal anti-inflammatory drugs. Studies were performed according to the following scheme: • 1. Study of the compounds' irritant action on mice stomach using doses five-times higher than pharmacological dose (single administration). • 2. Study of the compounds' ulcerogenic action using pharmaceutical dose during 7 days of administration. • 3. Aggravation of ulcerogenic effects of studied compounds by 0.6H hydrochloric acid. • 4. Aggravation of ulcerogenic effects of studied compounds by the known NSAIDs (indomethacin). 1. Study of Irritant Action of Compound 2
Male mice with body mass 23-24 g were deprived of food for 24 hours, water access was not limited. Number of animals in a group-10.
Compound 2 in 500 mg/kg dose was administered by a tube into the stomach, after 6 hours the animals were sacrificed, their stomachs extracted, number of ulcers counted and ulcerogenic index calculated. Ulcerogenic effect was assessed using 4-point scale: 0—no damage; 0.5—hyperemia; 1—insignificant damage (1 or 2 small bleedings); 2—multiple damage (erosions, small bleedings); 3—significant and multiple damage (erosions, bleedings); 4—severe damage, affecting all gastric mucosa (massive bleedings, erosions, perforations).

[12] = 50 mg/kg dose, compared with indomethacin

What does the source list for `N=C(N)N/N=C\c1[nH]c2ccccc2c1Nc1ccc([N+](=O)[O-])cc1` [Compound 2, N-[3-(4-nitrophenylamino)-indole-2-ilmethylene]aminoguanidine hydrochloride]?
Anti-inflammatory activity in carrageenan-induced peritonitis model, % of control ([1]; 25.0 mg/kg per os): 3.9 % of control; Anti-inflammatory activity in carrageenan-induced peritonitis model, % of control ([1]; 50.0 mg/kg per os): 21.6* % of control; Anti-inflammatory activity in carrageenan-induced peritonitis model, % of control ([1]; 100.0 mg/kg per os): 45.1* % of control; Anti-inflammatory activity in carrageenan-induced peritonitis model, % of control ([1]; 200.0 mg/kg per os): 84.3* % of control; Other types of pharmaceutical activity [2]: possesses anti-allergic, antihypoxic and analgesic activity; Aggravation of ulceration when combined with indomethacin ([3]; indomethacin in 20 mg/kg dose): does not aggravate ulceration; Average ulcerogenic index (4-point scale) of combining the studied compounds with indomethacin ([3]; mice, compound 2 100 mg/kg, voltaren 50 mg/kg, aminoguanidine 200 mg/kg, 1 hour before indomethacin 20 mg/kg, after 5 hours): 2.2; Aggravation of ulceration when combined with 0.6H hydrochloric acid [4]: does not aggravate ulceration; Average ulcerogenic index (4-point scale) of combining the studied compounds with hydrochloric acid ([4]; compound 2 100 mg/kg, indomethacin 20 mg/kg, voltaren 50 mg/kg, aminoguanidine 200 mg/kg, 1 hour before 0.6H HCl 5 ml/kg, after 4 hours): 0.15; Irritant effect on gastric mucosa ([5]; chronic use of 200 mg/kg doses): does not have irritant effect on gastric mucosa; Average ulcerogenic index (4-point scale) of chronic administration of pharmacological dose ([5]; mice, per os 7 days, compound 2 200 mg/kg, indomethacin 20 mg/kg, voltaren 50 mg/kg, aminoguanidine 200 mg/kg): 0; ED50 ([6]; Rattus norvegicus, po): 48 ± 4.5 mg/kg; Anti-inflammatory activity in LPS-induced peritonitis model, % of control ([6]; 10.0 mg/kg per os): 2.0 % of control; Anti-inflammatory activity in LPS-induced peritonitis model, % of control ([6]; 25.0 mg/kg per os): 26.0* % of control; Anti-inflammatory activity in LPS-induced peritonitis model, % of control ([6]; 50.0 mg/kg per os): 58.0* % of control; Anti-inflammatory activity in LPS-induced peritonitis model, % of control ([6]; 75.0 mg/kg per os): 78.0* % of control; Anti-inflammatory activity in LPS-induced peritonitis model, % of control ([6]; 100.0 mg/kg per os): 100.0* % of control; Anti-inflammatory activity compared with voltaren and aminoguanidine ([6]; summary of tables 2 and 3 (mice and rat peritonitis models)): somewhat inferior to voltaren in used models, but is better than aminoguanidine; Chondroprotective effect (cartilage width) ([7]; 50 mg/kg dose): chondroprotective effect of compound 2 was noted; Degeneration of articular carriage of hock ([7]; 50 mg/kg dose): partially prevented the degeneration of articular carriage of hock; Development of joint sclerosis and degradation of hind leg interphalangeal joints (x-ray) [7, 12]: most effective in inhibiting the development of joint sclerosis and degradation of hind leg interphalangeal joints, better than the drug of comparison; Level of TNFα in blood plasma [7, 12]: reduced the level of TNFα as good as the drug of comparison; Severity of hind leg swelling ([7]; 50 and 75 mg/kg doses): reduced the severity of hind leg swelling; Development of delayed type hypersensitivity ([7]; adjuvant arthritis, Wistar rats): inhibiting the development of delayed type hypersensitivity; Leukocytosis ([7]; adjuvant arthritis, Wistar rats, intragastric): reducing leukocytosis; LD50 at 5 days [8]: > 5000 mg/kg; Note (behavior) ([9]; 500.0 mg/kg intravenous): Normal behavior; Animal mortality: Alive ([9]; 500.0 mg/kg intravenous): 5; Animal mortality: Dead ([9]; 500.0 mg/kg intravenous): 0; Note (behavior) ([9]; 1000.0 mg/kg intravenous): Normal behavior; Animal mortality: Alive ([9]; 1000.0 mg/kg intravenous): 5; Animal mortality: Dead ([9]; 1000.0 mg/kg intravenous): 0; Note (behavior) ([9]; 1500.0 mg/kg intravenous): Normal behavior; Animal mortality: Alive ([9]; 1500.0 mg/kg intravenous): 5; Animal mortality: Dead ([9]; 1500.0 mg/kg intravenous): 0; Note (behavior) ([9]; 2000.0 mg/kg intravenous): Animals depressed; Animal mortality: Alive ([9]; 2000.0 mg/kg intravenous): 4; Animal mortality: Dead ([9]; 2000.0 mg/kg intravenous): 1; Class of danger as specified by GOST 12.1.007-76 ([9]; after intravenous administration up to 2000.0 mg/kg): third class of danger; Anti-inflammatory activity in LPS-induced peritonitis model, % of control ([10]; 25.0 mg/kg per os): 2.2 % of control; Anti-inflammatory activity in LPS-induced peritonitis model, % of control ([10]; 50.0 mg/kg per os): 46.7* % of control; Anti-inflammatory activity in LPS-induced peritonitis model, % of control ([10]; 100.0 mg/kg per os): 88.9* % of control; Anti-inflammatory activity in LPS-induced peritonitis model, % of control ([10]; 200.0 mg/kg per os): 100.0* % of control; Average ulcerogenic index (4-point scale) of single administration of the compounds in 500.0 mg/kg dose ([11]; mice fasted 24 h, into the stomach, sacrificed after 6 hours): 0; Irritant effect on gastric mucosa ([11]; single administration of 500 mg/kg dose): does not have irritant effect on gastric mucosa
